# Reference: patent publication US6613307B1, “Aerosol formulations of salmeterol xinafoate” (SmithKline Beecham Corporation, priority 1998, dated 2003)
# How the values were obtained:
# Format in all cases: physicochemical
# [1] = Reproducibility: particle size and distribution by laser diffraction (Malvern Mastersizer), Example 11; details: 300 bar, 35° C., acetone 0.6% w/v; for Mean Particle Size: two different days
# Method: Two different solutions of salmeterol xinafoate in acetone (0.6% w/v) were made and each solution was co-introduced with CO2 via a coaxial nozzle into the particle formation vessel using the apparatus described on two different days to give samples A and B. The operating conditions were 300 bar and 35° C., with flow rates of 0.2 ml/min for the salmeterol solution and 6 ml/min for the supercritical CO2. The crystallised salmeterol xinafoate provided from each solution was examined for particle size and size distribution.
# [2] = Dynamic bulk density (fluidisability) of salmeterol xinafoate powders; details: powder
# Method: The dynamic bulk density (W) is indicative of a substance's fluidisability and is defined as: [formula]
# where P is the packed bulk density (g.cm^−3), A is the aerated bulk density (g.cm^−3) and C is the compressibility (%) where C is calculated by the equation: [formula]
# Conventionally crystallised salmeterol xinafoate, both before and after micronisation, was compared against salmeterol xinafoate made by the supercritical fluid method described herein. A solution of salmeterol xinafoate in acetone (0.63% w/v) was co-introduced with CO2 at 300 bar and 45° C. via a coaxial nozzle into the particle formation vessel using the apparatus described and shown in FIG. 1 to give sample 1. A solution of salmeterol xinafoate in acetone (0.50% w/v) was cointroduced with CO2 at 100 bar and 55° C. via a coaxial nozzle into the particle formation vessel using the apparatus described and shown in FIG. 1 to give sample 2. In each case, the solution flow rate was 0.4 ml/min and supercritical CO2 was co-introduced into the particle formation vessel at a flow rate of 9 ml/min.
# The dynamic bulk densities are shown below in Table 2: […]
# [3] = Particle size analysis by laser diffraction (Malvern Mastersizer E), Example 3
# Method: A solution of salmeterol xinafoate in acetone (0.6% w/v) was co-introduced with CO2 at 200 bar and 55° C. via a coaxial nozzle into the particle formation vessel using the apparatus described and shown in FIG. 1. A series of products was obtained by changing the flow rate ratio of salmeterol xinafoate solution/supercritical CO2, where the flow ratio is defined as: [formula]
# The flow ratio was changed between 0.01 and 0.07, with a flow rate of 9 ml/min for the supercritical CO2.
# The resultant dry, easily handlable products without significant static charge were examined by scanning electron microscopy (SEM) and by laser diffraction (Malvern Mastersizer E) for particle size analysis (see FIGS. 12-15).
# The uniformity index is defined as: [formula]
# [4] = Relative static charge: drug remaining coated to vial walls after rolling; details: after rolling drug in vial for 5 minutes
# Method: Using samples prepared as described in Example 1, a simple test was devised to determine their relative static charge based on the quantity of drug remaining coated to the walls of a vial after rolling a predetermined quantity of drug in the vial for 5 minutes. The greater the drug remaining on the vial, the higher the relative static charge associated with the drug substance.
# [5] = Scanning electron microscopy of particles; details: SEM; needle shaped particles from isopropanol (0.2% w/v), 150 bar, 60° C.
# Method: In another experiment, a solution of salmeterol xinafoate in isopropanol (0.2% w/v) was co-introduced with CO2 at 150 bar and 60° C. via a coaxial nozzle into the particle formation vessel using the apparatus described and shown in FIG. 1. The dry, easily handlable product without significant static charge was examined by SEM (see FIG. 16) and found to be composed of needle shaped particles with a maximum particle dimension of up to 300 microns. Thus by controlling and changing the working conditions of the particle formation process, salmeterol xinafoate products composed of particles with different particle sizes and size distributions were produced.
Dynamic Bulk Density W [2] [g · cm^−3],% < 5 μm [3] [%],% < 10 μm [3] [%],Mean Particle Size [3],Uniformity index [3],SMILES,also measured
0.312,–,–,–,–,OCc1cc(C(O)CNCCCCCCOCCCCc2ccccc2)ccc1O (stereo not shown) [conventionally crystallised salmeterol xinafoate (non-micron] [reference compound],–
0.137,>90,>95,1-3 μm,13.1,OCc1cc(C(O)CNCCCCCCOCCCCc2ccccc2)ccc1O (stereo not shown) [Conventionally crystallised salmeterol xinafoate (micronised] [reference compound],% Drug Retaining on Vial [4]: 7.0%

# Continued, molecule first:
SMILES,Dynamic Bulk Density W [2] [g · cm^−3],% < 5 μm [3] [%],% < 10 μm [3] [%],Mean Particle Size [3],Uniformity index [3],also measured
"OCc1cc(C(O)CNCCCCCCOCCCCc2ccccc2)ccc1O (single isomer, unassigned) [Sample A, salmeterol xinafoate]",–,–,–,–,–,% < 5 microns [1]: 31.6%; % < 10 microns [1]: 67.8%; Uniformity index [1]: 9; Mean Particle Size [1]: 7.2 Microns
"OCc1cc(C(O)CNCCCCCCOCCCCc2ccccc2)ccc1O (stereo not shown) [SCF salmeterol xinafoate (sample 2), salmeterol xinafoate]",0.059,5.7,16.1,18.84 μm,19.2,% Drug Retaining on Vial ([4]; sample 2): 5.7%
"OCc1cc(C(O)CNCCCCCCOCCCCc2ccccc2)ccc1O (stereo not shown) [SCF salmeterol xinafoate (sample 1), salmeterol xinafoate]",0.033,66.0,94.5,3.85 μm,10.2,% Drug Retaining on Vial ([4]; sample 1): 2.5%
"OCc1cc(C(O)CNCCCCCCOCCCCc2ccccc2)ccc1O (single isomer, unassigned) [Sample B, salmeterol xinafoate]",–,–,–,–,–,% < 5 microns [1]: 28.3%; % < 10 microns [1]: 64.5%; Uniformity index [1]: 9; Mean Particle Size [1]: 7.7 Microns
"OCc1cc(C(O)CNCCCCCCOCCCCc2ccccc2)ccc1O (stereo not drawn) [salmeterol xinafoate, 4-hydroxy-α^1-[[[6-(4-phenylbutoxy)hexyl]amino]methyl]-1,3-benzenedimethanol (salmeterol) 1-hydroxy-2-naphthalenecarboxylate (xinafoate)]",–,–,–,–,–,maximum particle dimension [5]: up to 300 microns
